Measured values: the supplement of paper PMC10307832

How the values were obtained:
Experiment in all cases: relative viability (nuclei count vs DMSO), 5 days (fraction); higher = more cells survive
IU1-47 + Palbociclib = compound: CC1=CC(=C(N1C2=CC=C(C=C2)Cl)C)C(=O)CN3CCCCC3 [IU1-47] + CC(=O)c1c(C)c2cnc(Nc3ccc(N4CCNCC4)cn3)nc2n(C2CCCC2)c1=O [Palbociclib] (partner 0.5 µM)
Outline: (§1)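 For relative viability, nuclei counts in treated wells were divided by those in vehicle wells. Lung cancer cell lines had been pin-tool dosed in 1536-well plates the day after seeding and cultured for 5 days, then fixed and stained in one step (final 0.05% Triton X-100, 1% formaldehyde, 1 ug/ml Hoechst) and imaged at 4×. Doses were one drug alone or a fixed anchor-drug dose plus five library-drug doses (not always all listed) in √10 steps, and values are duplicate-plate medians.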

FG-4592 + Decitabine = compound: Cc1nc(C(=O)NCC(=O)O)c(O)c2ccc(Oc3ccccc3)cc12 [FG-4592] + Nc1ncn([C@H]2C[C@H](O)[C@@H](CO)O2)c(=O)n1 [Decitabine] (partner 2 µM)
Outline: as §1

IU1-47 + Pemetrexed = compound: CC1=CC(=C(N1C2=CC=C(C=C2)Cl)C)C(=O)CN3CCCCC3 [IU1-47] + Nc1nc2[nH]cc(CCc3ccc(C(=O)N[C@@H](CCC(=O)O)C(=O)O)cc3)c2c(=O)[nH]1 [Pemetrexed] (partner 0.2 µM)
Outline: as §1

FG-4592 + Alpelisib = compound: Cc1nc(C(=O)NCC(=O)O)c(O)c2ccc(Oc3ccccc3)cc12 [FG-4592] + Cc1nc(NC(=O)N2CCC[C@H]2C(N)=O)sc1-c1ccnc(C(C)(C)C(F)(F)F)c1 [Alpelisib] (partner 2 µM)
Outline: as §1

Cell Line | relative viability (IU1-47 + Palbociclib; first compound 0.08 µM) | relative viability (IU1-47 + Palbociclib; first compound 0.253 µM) | relative viability (IU1-47 + Palbociclib; first compound 0.8 µM) | relative viability (IU1-47 + Palbociclib; first compound 2.53 µM) | relative viability (IU1-47 + Palbociclib; first compound 8 µM) | relative viability (FG-4592 + Decitabine; first compound 0.08 µM) | relative viability (FG-4592 + Decitabine; first compound 0.253 µM) | relative viability (FG-4592 + Decitabine; first compound 0.8 µM) | relative viability (FG-4592 + Decitabine; first compound 2.53 µM) | relative viability (FG-4592 + Decitabine; first compound 8 µM) | relative viability (IU1-47 + Pemetrexed; first compound 0.08 µM) | relative viability (IU1-47 + Pemetrexed; first compound 0.253 µM) | relative viability (IU1-47 + Pemetrexed; first compound 0.8 µM) | relative viability (IU1-47 + Pemetrexed; first compound 2.53 µM) | relative viability (IU1-47 + Pemetrexed; first compound 8 µM) | relative viability (FG-4592 + Alpelisib; first compound 0.08 µM) | relative viability (FG-4592 + Alpelisib; first compound 0.253 µM) | relative viability (FG-4592 + Alpelisib; first compound 0.8 µM) | relative viability (FG-4592 + Alpelisib; first compound 2.53 µM) | relative viability (FG-4592 + Alpelisib; first compound 8 µM)
NCI-H1975 | 0.586 | 0.547 | 0.868 | 0.611 | 0.364 | 0.378 | 0.363 | 0.426 | 0.406 | 0.404 | 0.278 | 0.289 | 0.297 | 0.299 | 0.255 | 0.679 | 0.555 | 0.672 | 0.655 | 0.56
CAL-12T | 0.402 | 0.306 | 0.413 | 0.508 | 0.324 | – | – | – | – | – | 1.2 | 1.39 | 1.15 | 1.34 | 1.04 | 1.13 | 1.23 | 1.55 | 1.13 | 0.971
HCC-44 | 1.02 | 0.95 | 0.996 | 0.993 | 1.01 | 0.902 | 0.941 | 0.914 | 0.93 | 1 | 0.706 | 0.685 | 0.647 | 0.668 | 0.696 | 0.767 | 0.786 | 0.876 | 0.936 | 0.797
EKVX | 0.391 | 0.397 | 0.419 | – | 0.347 | 0.325 | 0.368 | 0.287 | 0.319 | 0.341 | 0.407 | 0.406 | 0.423 | – | 0.453 | 0.786 | 0.858 | 0.932 | 0.79 | 0.932
NCI-H1651 | 0.525 | 0.539 | 0.495 | 0.523 | 0.523 | 0.713 | 0.603 | 0.703 | 0.668 | 0.499 | 0.587 | 0.559 | 0.616 | 0.311 | 0.451 | 0.925 | 0.888 | 1.03 | 0.95 | 0.816
NCI-H1944 | 0.342 | 0.376 | 0.345 | 0.291 | 0.33 | 0.422 | 0.446 | 0.415 | 0.436 | 0.388 | 0.652 | 0.778 | 0.751 | 0.734 | 0.58 | 0.794 | 0.801 | 0.692 | 0.853 | 0.836
NCI-H1703 | – | – | – | – | – | – | – | – | – | – | – | – | – | – | – | 0.255 | 0.354 | 0.295 | 0.326 | 0.353
Calu-6 | – | – | – | – | – | – | – | – | – | – | – | – | – | – | – | 0.952 | 0.846 | 1.12 | 0.985 | 0.969
EBC-1 | – | – | – | – | – | – | – | – | – | – | – | – | – | – | – | 0.895 | 0.816 | 0.736 | 0.693 | 0.814
SW 1573 | 0.357 | 0.385 | 0.379 | 0.509 | 0.31 | 0.516 | 0.505 | 0.537 | 0.482 | 0.447 | 0.935 | 0.912 | 0.766 | 0.657 | 0.749 | 0.781 | 0.733 | 0.852 | 0.857 | 0.616
A-427 | 0.488 | 0.521 | 0.536 | 0.556 | 0.499 | 0.535 | 0.558 | 0.503 | 0.558 | 0.567 | 1.06 | 1 | 0.993 | 1 | 0.937 | 1.04 | 1.07 | 1.04 | 1.13 | 1.05
NCI-H2347 | 0.39 | 0.474 | 0.436 | 0.43 | 0.438 | 0.665 | 0.523 | 0.629 | 0.581 | 0.613 | 0.436 | 0.39 | 0.447 | 0.395 | 0.419 | 0.988 | – | 0.85 | 1.16 | 1.11
NCI-H1355 | 0.422 | 0.414 | 0.41 | – | 0.37 | 0.355 | 0.297 | – | 0.378 | 0.307 | 1.06 | 1.08 | 1.12 | – | 1.07 | 0.797 | 0.788 | – | 0.869 | 0.743
NCI-H358 | 0.131 | 0.165 | 0.149 | 0.112 | 0.141 | 0.213 | 0.194 | 0.288 | 0.192 | 0.202 | 0.156 | 0.169 | 0.172 | 0.184 | 0.165 | 0.864 | 0.686 | 0.952 | 0.865 | 0.717
PC-3 [JPC-3] | 0.562 | 0.531 | 0.602 | 0.546 | 0.559 | 0.836 | 0.767 | – | 0.844 | 0.911 | 1.13 | 1.12 | 1.04 | 0.774 | 1.07 | 0.966 | 0.972 | 1.1 | 1 | 1.03
NCI-H2228 | 0.715 | 0.807 | 0.897 | 0.689 | 0.575 | – | – | – | – | – | 0.37 | 0.345 | 0.387 | 0.362 | 0.362 | 0.536 | 0.545 | 0.759 | 0.766 | 0.637
HOP-62 | 0.515 | 0.524 | 0.483 | 0.499 | 0.452 | 0.216 | 0.219 | 0.223 | 0.199 | 0.185 | 0.398 | 0.454 | 0.373 | 0.223 | 0.365 | 0.998 | 0.935 | 0.771 | 1.03 | 0.929
HARA | 0.231 | 0.316 | 0.239 | – | 0.221 | – | – | – | 0.676 | 0.559 | 0.258 | – | 0.199 | 0.26 | 0.22 | 0.805 | 0.728 | – | 0.945 | 0.827
NCI-H838 | 0.181 | 0.222 | 0.225 | 0.232 | 0.236 | 0.456 | 0.439 | 0.446 | 0.459 | 0.443 | 0.241 | 0.233 | 0.259 | 0.274 | 0.246 | 0.877 | 0.933 | 0.98 | 1.01 | 0.816
